#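 Compound exposure: 48 hours, 5 concentrations, 96-well plates. GI50: concentration for 50% inhibition of growth.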 The source made the active and inactive calls. Cut-off read from the data, not from the text of the source: active = GI50 up to about 1.1 µM and inactive = higher.
# What was measured:
# Assay in all cases: NCI tumour cell line growth inhibition, 48 h
# KM12 = tested on: KM12
# SW-620 = tested on: SW-620
# SK-MEL-28 = tested on: SK-MEL-28
# SNB-19 = tested on: SNB-19
# HCT-15 = tested on: HCT-15
# CCRF-CEM = tested on: CCRF-CEM
# MDA-MB-435 = tested on: MDA-MB-435
# HCC 2998 = tested on: HCC 2998
# OVCAR-8 = tested on: OVCAR-8
# SN12C = tested on: SN12C
# MDA-MB-231 = tested on: MDA-MB-231
# NCI-H460 = tested on: NCI-H460
# HL-60 = tested on: HL-60
# BT-549 = tested on: BT-549
# MDA-N = tested on: MDA-N
# NCI-H522 = tested on: NCI-H522
# M14 = tested on: M14
# OVCAR-5 = tested on: OVCAR-5
# HCT-116 = tested on: HCT-116
# K562 = tested on: K562
Structure (SMILES),GI50 (KM12),GI50 (SW-620),GI50 (SK-MEL-28),GI50 (SNB-19),GI50 (HCT-15) [µM],GI50 (CCRF-CEM),GI50 (MDA-MB-435),GI50 (HCC 2998),GI50 (OVCAR-8),GI50 (SN12C),GI50 (MDA-MB-231),GI50 (NCI-H460),GI50 (HL-60),GI50 (BT-549),GI50 (MDA-N),GI50 (NCI-H522),GI50 (M14),GI50 (OVCAR-5),GI50 (HCT-116),GI50 (K562)
N=C(N)NNC(=O)C(=O)O,> 100 µM (inactive),> 100 µM (inactive),> 100 µM (inactive),> 100 µM (inactive),> 100,> 100 µM (inactive),> 100 µM (inactive),> 100 µM (inactive),> 100 µM (inactive),> 100 µM (inactive),> 100 µM (inactive),> 100 µM (inactive),> 100 µM (inactive),> 100 µM (inactive),> 100 µM (inactive),> 100 µM (inactive),> 100 µM (inactive),> 100 µM (inactive),> 100 µM (inactive),> 100 µM (inactive)
O=C(O)/C=C/C(=O)Nc1cccc2c1-c1ccccc1C2=O,16.9 µM (inactive),5.53 µM (inactive),> 29.6 µM (inactive),17.9 µM (inactive),10.2,4.32 µM (inactive),2.85 µM (inactive),22.2 µM (inactive),21.6 µM (inactive),36.6 µM (inactive),13.3 µM (inactive),3.67 µM (inactive),1.28 µM (inactive),16.9 µM (inactive),2.99 µM (inactive),3.25 µM (inactive),9.4 µM (inactive),> 63.4 µM (inactive),42.8 µM (inactive),3.91 µM (inactive)
COc1ccc2o/c(=N/c3ccccc3)c(C(N)=O)cc2c1,> 100 µM (inactive),> 100 µM (inactive),> 100 µM (inactive),–,> 100,> 100 µM (inactive),3.45 µM (inactive),> 100 µM (inactive),> 67.5 µM (inactive),> 100 µM (inactive),> 53.3 µM (inactive),> 100 µM (inactive),> 100 µM (inactive),91 µM (inactive),6.84 µM (inactive),> 54.8 µM (inactive),> 100 µM (inactive),> 100 µM (inactive),> 69.8 µM (inactive),> 100 µM (inactive)
COc1cc(OC)c2c(O)c3c(cc2c1)CC(C)(C)CC3=O,> 92.3 µM (inactive),59 µM (inactive),60.7 µM (inactive),> 100 µM (inactive),> 100,> 63.1 µM (inactive),19.4 µM (inactive),> 100 µM (inactive),> 100 µM (inactive),> 100 µM (inactive),> 100 µM (inactive),> 100 µM (inactive),> 32.7 µM (inactive),> 100 µM (inactive),> 64 µM (inactive),> 64.3 µM (inactive),> 100 µM (inactive),> 100 µM (inactive),> 100 µM (inactive),–
N=c1oc2c(Br)cc(Br)cc2cc1C(=O)Nc1ccccn1,56.5 µM (inactive),> 100 µM (inactive),> 100 µM (inactive),> 100 µM (inactive),38.9,41.2 µM (inactive),62.1 µM (inactive),> 100 µM (inactive),45.9 µM (inactive),> 100 µM (inactive),> 100 µM (inactive),71.9 µM (inactive),57.5 µM (inactive),> 100 µM (inactive),> 100 µM (inactive),47.2 µM (inactive),56 µM (inactive),> 100 µM (inactive),38.3 µM (inactive),> 100 µM (inactive)
CC(O)C1(O)C(O)CC(OC2c3cc4c(c(O)c3[C@@H]3C[C@@]2(C)OC32C=c3cc[nH]c3=N2)C(=O)c2cccc(O)c2C4=O)OC1C (stereo partly specified),1.07 µM (active),0.809 µM (active),1.7 µM (inactive),2.34 µM (inactive),2.03,0.34 µM (active),1.63 µM (inactive),1.11 µM (active),0.959 µM (active),0.607 µM (active),1.06 µM (active),0.401 µM (active),0.598 µM (active),5.56 µM (inactive),1.81 µM (inactive),0.307 µM (active),1.34 µM (inactive),3.08 µM (inactive),0.789 µM (active),0.935 µM (active)
C=C1C(=O)OC2/C=C(\CO)CC/C=C(\CO)CC(OC(=O)C(C)C)C12 (stereo unspecified),18.2 µM (inactive),4.41 µM (inactive),6.27 µM (inactive),21.5 µM (inactive),3.19,2.99 µM (inactive),8.75 µM (inactive),20.7 µM (inactive),20 µM (inactive),13.3 µM (inactive),20.1 µM (inactive),20.9 µM (inactive),2.87 µM (inactive),7.94 µM (inactive),5.68 µM (inactive),1.56 µM (inactive),7.53 µM (inactive),15.9 µM (inactive),7.4 µM (inactive),1.71 µM (inactive)
CC(=O)c1c2c(cc3c1CCC3)CCC2,> 100 µM (inactive),> 100 µM (inactive),> 100 µM (inactive),> 100 µM (inactive),> 100,40.7 µM (inactive),> 100 µM (inactive),> 100 µM (inactive),> 100 µM (inactive),> 100 µM (inactive),> 100 µM (inactive),> 100 µM (inactive),> 100 µM (inactive),> 100 µM (inactive),> 100 µM (inactive),> 100 µM (inactive),> 100 µM (inactive),> 100 µM (inactive),70.3 µM (inactive),20.7 µM (inactive)
O=P1(c2ccccc2)c2ccccc2-c2ccccc21,> 100 µM (inactive),> 100 µM (inactive),> 100 µM (inactive),> 100 µM (inactive),> 100,55.5 µM (inactive),> 100 µM (inactive),> 100 µM (inactive),> 100 µM (inactive),> 100 µM (inactive),> 100 µM (inactive),–,66.1 µM (inactive),65.2 µM (inactive),97.7 µM (inactive),> 100 µM (inactive),> 10 µM (inactive),–,99.3 µM (inactive),86.9 µM (inactive)
CCCC(Sc1nc(N)nc2nc[nH]c12)C(=O)O (stereo unspecified),> 100 µM (inactive),> 100 µM (inactive),> 100 µM (inactive),> 100 µM (inactive),91.6,81.5 µM (inactive),74.8 µM (inactive),34.3 µM (inactive),56.2 µM (inactive),> 100 µM (inactive),> 100 µM (inactive),67 µM (inactive),> 100 µM (inactive),> 100 µM (inactive),47.5 µM (inactive),49 µM (inactive),53.2 µM (inactive),63.1 µM (inactive),42.1 µM (inactive),37.7 µM (inactive)
Nc1nc(Sc2ccc([N+](=O)[O-])cn2)c2nc[nH]c2n1,7.38 µM (inactive),18.2 µM (inactive),33.8 µM (inactive),23.8 µM (inactive),9.55,2.77 µM (inactive),4.79 µM (inactive),12.8 µM (inactive),4.81 µM (inactive),4.74 µM (inactive),5.9 µM (inactive),4.88 µM (inactive),10.7 µM (inactive),8.45 µM (inactive),3.61 µM (inactive),12.3 µM (inactive),3.16 µM (inactive),3.47 µM (inactive),3.94 µM (inactive),7.01 µM (inactive)
C/C(=N\NC(=S)N(C)C)c1ccccn1,0.0307 µM (active),0.0109 µM (active),0.269 µM (active),1.47 µM (inactive),< 0.01,< 0.01 µM (active),0.221 µM (active),0.161 µM (active),< 0.01 µM (active),0.057 µM (active),< 0.01 µM (active),< 0.0156 µM (active),< 0.01 µM (active),0.0111 µM (active),0.305 µM (active),0.247 µM (active),< 0.01 µM (active),0.0373 µM (active),< 0.01 µM (active),< 0.01 µM (active)
Nc1ccc(-c2nc3cc(F)ccc3s2)cc1Cl,8.99 µM (inactive),> 100 µM (inactive),> 85.5 µM (inactive),32.4 µM (inactive),0.134,> 22.9 µM (inactive),> 100 µM (inactive),< 0.01 µM (active),38.6 µM (inactive),23.3 µM (inactive),5.08 µM (inactive),0.0364 µM (active),3.64 µM (inactive),8.15 µM (inactive),> 100 µM (inactive),20.5 µM (inactive),> 85.1 µM (inactive),0.0219 µM (active),0.0782 µM (active),14.8 µM (inactive)
O=C(/C=C/c1ccc(O)c(O)c1)Oc1ccccc1,9.29 µM (inactive),12.6 µM (inactive),22.5 µM (inactive),20.4 µM (inactive),2.74,0.292 µM (active),14.5 µM (inactive),18.6 µM (inactive),12.7 µM (inactive),16 µM (inactive),23.1 µM (inactive),19.2 µM (inactive),1.61 µM (inactive),14.9 µM (inactive),16.1 µM (inactive),0.304 µM (active),15.5 µM (inactive),28.7 µM (inactive),9.71 µM (inactive),4.27 µM (inactive)
CSc1ccccc1P(CCP(c1ccccc1SC)c1ccccc1SC)c1ccccc1SC,18.6 µM (inactive),16.7 µM (inactive),76.2 µM (inactive),35.4 µM (inactive),> 67,0.953 µM (active),31.5 µM (inactive),4.88 µM (inactive),8.73 µM (inactive),38.3 µM (inactive),8.81 µM (inactive),3.13 µM (inactive),0.4 µM (active),38.7 µM (inactive),50.5 µM (inactive),28.1 µM (inactive),24.3 µM (inactive),43.9 µM (inactive),0.413 µM (active),1.67 µM (inactive)

# Source: ChEMBL document CHEMBL1201862, “PubChem BioAssay data set” (2004)
